Source: PubChem BioAssay AID2060486 (Molecular Pharmacology Branch, DTP, NCI, 2025)

Test system: IGROV1 complex spheroids (HUVEC, MSC), viability % test/control
Assay: Anticancer human tumor IGROV1 cell line growth inhibition [GQUAD];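 also: spheroids exposed to compounds for 7 days before readout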
Settings: for IC50: curve of first compound; for viability, T/C: stronger effect = lower value
Description: DNA G-quadruplex Stabilizer Agents in Combinations in Complex Spheroids
A high-throughput screen of multi-cell type tumor spheroids was designed to identify active combinations of DNA G-quadruplex stabilizer agents and targeted small molecules. Complex spheroids include a stromal component modeled by human endothelial cells (HUVEC) and fibroblasts modeled by human mesenchymal stem cells (MSCs). The concentration ranges selected for each drug and investigational agent were based upon clinically achievable concentrations if the clinical Cmax of the agent was known.
Compounds. The drugs and investigational agents: pidnarulex (CX-5461; NSC782164), APTO-253 (NSC789042), BRACO-19 (NSC847499), peposertib (NSC802822), ceralasertib (NSC780249), elimusertib (NSC800525), camonsertib (NSC841442), AZD-1390 (NSC803789), olaparib (NSC753686), talazoparib (NSC767125), ART-558 (NSC835418), sotorasib (NSC818433), MRTX-1133 (NSC836407), SN-38 (NSC673596), topotecan (NSC609699), etoposide (NSC141540), doxorubicin (NSC123127), gemcitabine (NSC613327), 5-fluorouracil (NSC19893), paclitaxel (NSC125973), vemurafenib (NSC761431), panobinostat (NSC761190), R-306465 (JNJ-16241199; NSC773264), adavosertib (NSC754352), TP-3654 (NSC805149), carboplatin (NSC241240), KSQ-4279 (NSC840948), and staurosporine (NSC755774) were obtained from the National Cancer Institute (NCI) Developmental Therapeutics Program Chemical Repository (34). The FDA-approved anticancer drug set is available from the NCI Developmental Therapeutics Program. […] The stock solutions were prepared in dimethyl sulfoxide (DMSO, Sigma-Aldrich, St. Louis, MO, cat. D2650) at 800-fold the tested concentration and stored at -70 degrees C prior to their use. All drugs and investigational agents were tested over a range starting from a high concentration at or near the clinical Cmax and decreasing in half-log increments. If the clinical Cmax for an agent had not been determined, the highest concentration tested was 10 microM.
2.3 Cell Culture. All cells were maintained in an incubator at 37 degrees C and 5% CO2 with 95% humidity. The PDC lines were cultured according to standard operating procedures established by the NCI PDMR. All PDCs were thawed and cultured in Matrigel-coated flasks prepared with a working solution of 1X Ham's F-12 nutrient mix, without supplementation (Invitrogen, cat. 11765054), 100 U/mL penicillin-streptomycin (Invitrogen, cat. 15140122), and 2.5% Matrigel (Corning Inc., cat. 354248) for the first three passages. The 857933-349-R-J2-PDC line was cultured in 6C/Colon 1B media, which includes advanced DMEM/F-12 (Thermo Fisher Scientific, cat. 12634028), 10 mM HEPES (Thermo Fisher Scientific, cat. 15630080), 1X GlutaMAX supplement (Thermo Fisher Scientific, cat. 35050061), 0.1 mg/mL primocin (InvivoGen, cat. ant-pm-2), 10% defined fetal bovine serum, heat inactivated (HyClone Laboratories Inc., cat. SH30070.03HI), 50% L-WRN conditioned media (ATCC, cat. CRL-3276), 1.25 mM N-Acetyl-L-cysteine (Sigma-Aldrich, cat. A9165), 10 mM nicotinamide (Sigma-Aldrich, cat. N0636), 1X B-27 supplement (Thermo Fisher Scientific, cat. 17504044), 1X N-2 supplement (Thermo Fisher Scientific, cat. 17502048), 10 microM Y-27632 dihydrochloride (Tocris Bioscience, cat. 1254), and 50 ng/mL human EGF recombinant protein (Thermo Fisher Scientific, cat. PHG0311). The 485176-168-R4-J1-PDC line was cultured in Panc media, which includes all 6C/Colon 1B media components plus 100 ng/mL human FGF-10 (Thermo Fisher Scientific, cat. 100-26), 500 nM SB-431542 (Selleckchem, cat. S1067), and gastrin (Tocris, cat. 3006).
[…]

[1] = second compound 0.0316 µM, first compound 0.0316 µM
[2] = second compound 0.0316 µM, first compound 0.1 µM
[3] = second compound 0.0316 µM, first compound 0.316 µM
[4] = second compound 0.0316 µM, first compound 1 µM
[5] = second compound 0.0316 µM, first compound 3.16 µM
[6] = second compound 0.0316 µM, first compound 10 µM
[7] = second compound 0.1 µM, first compound 0.0316 µM
[8] = second compound 0.1 µM, first compound 0.1 µM
[9] = second compound 0.1 µM, first compound 0.316 µM
[10] = second compound 0.1 µM, first compound 1 µM
[11] = second compound 0.1 µM, first compound 3.16 µM
[12] = second compound 0.1 µM, first compound 10 µM
[13] = second compound 0.316 µM, first compound 0.0316 µM
[14] = second compound 0.316 µM, first compound 0.1 µM
[15] = second compound 0.316 µM, first compound 0.316 µM
[16] = second compound 0.316 µM, first compound 1 µM
[17] = second compound 0.316 µM, first compound 3.16 µM
[18] = second compound 0.316 µM, first compound 10 µM
[19] = second compound 1 µM, first compound 0.0316 µM
[20] = second compound 1 µM, first compound 0.1 µM
[21] = second compound 1 µM, first compound 0.316 µM
[22] = second compound 1 µM, first compound 1 µM
[23] = second compound 1 µM, first compound 3.16 µM
[24] = second compound 1 µM, first compound 10 µM
[25] = second compound 3.16 µM, first compound 0.0316 µM
[26] = second compound 3.16 µM, first compound 0.1 µM
[27] = second compound 3.16 µM, first compound 0.316 µM
[28] = second compound 3.16 µM, first compound 1 µM
[29] = second compound 3.16 µM, first compound 3.16 µM
[30] = second compound 3.16 µM, first compound 10 µM
[31] = second compound 10 µM, first compound 0.0316 µM
[32] = second compound 10 µM, first compound 0.1 µM
[33] = second compound 10 µM, first compound 0.316 µM
[34] = second compound 10 µM, first compound 1 µM
[35] = second compound 10 µM, first compound 3.16 µM
[36] = second compound 10 µM, first compound 10 µM

Molecule `COc1cccc2c1C(=O)c1c(O)c3c(c(O)c1C2=O)CC(O)(C(=O)CO)CC3OC1CC(N)C(O)C(C)O1` (centres undefined) + CN(C)c1ccc(Nc2c3ccc(NC(=O)CCN4CCCC4)cc3nc3cc(NC(=O)CCN4CCCC4)ccc23)cc1 has an IC50 (second compound 0.0316 µM) of 49.4 nM, an IC50 (second compound 0.1 µM) of 49 nM and an IC50 (second compound 0.316 µM) of 39.9 nM. The IC50 (second compound 1 µM) was 32.4 nM, the IC50 (second compound 3.16 µM) was 41.3 nM and the IC50 (second compound 10 µM) was less than 31.6 nM. The viability, T/C [1] was 67.7%, the viability, T/C [2] was 21.5% and the viability, T/C [3] was 9.86%. For the same molecule, the viability, T/C [4] was 3.36%, the viability, T/C [5] was 0.13% and the viability, T/C [6] was 1.04%. For the same molecule, the viability, T/C [7] was 67.9%, the viability, T/C [8] was 20.4% and the viability, T/C [9] was 9.01%. The viability, T/C [10] was 3.31%, the viability, T/C [11] was 0.07% and the viability, T/C [12] was 1.06%. It also gave a viability, T/C [13] of 57.2%, a viability, T/C [14] of 21.7% and a viability, T/C [15] of 9.64%. It also gave a viability, T/C [16] of 3.48%, a viability, T/C [17] of 0.07% and a viability, T/C [18] of 1.01%. For the same molecule, the viability, T/C [19] was 50.5%, the viability, T/C [20] was 25.7% and the viability, T/C [21] was 7.36%. It also gave a viability, T/C [22] of 2.77%, a viability, T/C [23] of 0.08% and a viability, T/C [24] of 0.98%. It also gave a viability, T/C [25] of 59.6%, a viability, T/C [26] of 18.7% and a viability, T/C [27] of 8.4%. It also gave a viability, T/C [28] of 3.44%, a viability, T/C [29] of 0.13% and a viability, T/C [30] of 0.94%. The viability, T/C [31] was 33.5%, the viability, T/C [32] was 15.6% and the viability, T/C [33] was 5.82%. For the same molecule, the viability, T/C [34] was 3.29%, the viability, T/C [35] was 0.17% and the viability, T/C [36] was 1.15%.

Work on `Nc1ccn(C2OC(CO)C(O)C2(F)F)c(=O)n1` (centres undefined) + CN(C)c1ccc(Nc2c3ccc(NC(=O)CCN4CCCC4)cc3nc3cc(NC(=O)CCN4CCCC4)ccc23)cc1 yielded an IC50 (second compound 0.0316 µM) of less than 31.6 nM, an IC50 (second compound 0.1 µM) of less than 31.6 nM and an IC50 (second compound 0.316 µM) of less than 31.6 nM. For the same molecule, the IC50 (second compound 1 µM) was less than 31.6 nM, the IC50 (second compound 3.16 µM) was less than 31.6 nM and the IC50 (second compound 10 µM) was less than 31.6 nM. The viability, T/C [1] was 11.5%, the viability, T/C [2] was 6.58% and the viability, T/C [3] was 6.05%. The viability, T/C [4] was 6.75%, the viability, T/C [5] was 6.08% and the viability, T/C [6] was 4.2%. For the same molecule, the viability, T/C [7] was 12.7%, the viability, T/C [8] was 5.68% and the viability, T/C [9] was 6.81%. It also gave a viability, T/C [10] of 6.8%, a viability, T/C [11] of 5.93% and a viability, T/C [12] of 4.32%. It also gave a viability, T/C [13] of 13.1%, a viability, T/C [14] of 5.27% and a viability, T/C [15] of 6.2%. The viability, T/C [16] was 6.03%, the viability, T/C [17] was 5.63% and the viability, T/C [18] was 6.07%. The viability, T/C [19] was 11.6%, the viability, T/C [20] was 5.93% and the viability, T/C [21] was 7.47%. For the same molecule, the viability, T/C [22] was 6.02%, the viability, T/C [23] was 6.39% and the viability, T/C [24] was 5.81%. The viability, T/C [25] was 10.2%, the viability, T/C [26] was 5.96% and the viability, T/C [27] was 6.33%. For the same molecule, the viability, T/C [28] was 5.69%, the viability, T/C [29] was 5.78% and the viability, T/C [30] was 4.9%. For the same molecule, the viability, T/C [31] was 6.83%, the viability, T/C [32] was 4.85% and the viability, T/C [33] was 4.16%. It also gave a viability, T/C [34] of 4.94%, a viability, T/C [35] of 4.47% and a viability, T/C [36] of 4.53%.
